# In ChEMBL document CHEMBL1201862, “PubChem BioAssay data set” (2004):
# “And” between values parts separate entries of the source, which are not always exact repeats. Equal entries are not always repeated.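 Test compounds were applied to cells in 96-well plates for 48 hours at 5 doses. Abbreviation: GI50, concentration required for 50% inhibition of growth.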 The source made the active and inactive calls. Cut-off read from the data, not from the text of the source: active = GI50 up to about 1.1 µM and inactive = higher.
# Tests used:
# Assay in all cases: NCI tumour cell line growth inhibition, 48 h
# CCRF-CEM = tested on: CCRF-CEM
# SK-MEL-2 = tested on: SK-MEL-2
# RXF 393 = tested on: RXF 393
# HOP-62 = tested on: HOP-62
# T47D = tested on: T47D
# DU-145 = tested on: DU-145
# MCF7 = tested on: MCF7
# OVCAR-4 = tested on: OVCAR-4
# Hs-578T = tested on: Hs-578T
# SF-539 = tested on: SF-539
# LOX IMVI = tested on: LOX IMVI
# U-251 = tested on: U-251
# HOP-92 = tested on: HOP-92
# UO-31 = tested on: UO-31
# ACHN = tested on: ACHN
# TK-10 = tested on: TK-10
# PC-3 = tested on: PC-3
# A549 = tested on: A549
# A498 = tested on: A498
SMILES,GI50 (CCRF-CEM),GI50 (SK-MEL-2),GI50 (RXF 393),GI50 (HOP-62),GI50 (T47D),GI50 (DU-145),GI50 (MCF7),GI50 (OVCAR-4),GI50 (Hs-578T),GI50 (SF-539),GI50 (LOX IMVI),GI50 (U-251),GI50 (HOP-92),GI50 (UO-31),GI50 (ACHN),GI50 (TK-10),GI50 (PC-3),GI50 (A549),GI50 (A498)
O=c1ccn(-c2ccccn2)c(=O)n1-c1ccccn1,> 100 µM (inactive),> 100 µM (inactive),> 100 µM (inactive),> 100 µM (inactive),> 100 µM (inactive),> 100 µM (inactive),> 100 µM (inactive),> 100 µM (inactive),> 100 µM (inactive),> 100 µM (inactive),> 100 µM (inactive),> 100 µM (inactive),> 100 µM (inactive),> 100 µM (inactive),> 100 µM (inactive),> 100 µM (inactive),> 100 µM (inactive),> 100 µM (inactive),> 100 µM (inactive)
C#CCn1ncc2c(SC)ncnc21,> 100 µM (inactive),> 100 µM (inactive),> 100 µM (inactive),> 100 µM (inactive),19 µM (inactive),> 100 µM (inactive),> 100 µM (inactive),> 100 µM (inactive),> 100 µM (inactive),> 100 µM (inactive),> 100 µM (inactive),> 100 µM (inactive),> 100 µM (inactive),> 100 µM (inactive),> 100 µM (inactive),> 100 µM (inactive),> 100 µM (inactive),> 100 µM (inactive),> 100 µM (inactive)
N#CC1=C(N)OC2=C(CCCc3ccccc32)C1c1ccc([N+](=O)[O-])cc1 (stereo not drawn),4.52 µM (inactive),17.9 µM (inactive),13.2 µM (inactive),17.2 µM (inactive),8.18 µM (inactive),10.1 µM (inactive),16.7 µM (inactive),15.8 µM (inactive),36.5 µM (inactive),19.2 µM (inactive),19.1 µM (inactive),15.5 µM (inactive),19.1 µM (inactive),11.8 µM (inactive),17.9 µM (inactive),28.8 µM (inactive),17.1 µM (inactive),19 µM (inactive),12 µM (inactive)
CC1(C)OC[C@@]2([C@@H]3CC[C@@H](C3)C2(C)C)N1O,> 100 µM (inactive),> 100 µM (inactive),> 100 µM (inactive),> 100 µM (inactive),> 100 µM (inactive),> 100 µM (inactive),> 100 µM (inactive),> 100 µM (inactive),> 100 µM (inactive),> 100 µM (inactive),92 µM (inactive),88.9 µM (inactive),27.4 µM (inactive),,> 100 µM (inactive),> 100 µM (inactive),55.8 µM (inactive),> 100 µM (inactive),> 100 µM (inactive)
O=C1N2CCC[C@H]2CS1(=O)=O,2.3 µM (inactive),17.6 µM (inactive),7.36 µM (inactive),16.1 µM (inactive),13.5 µM (inactive),17.9 µM (inactive),6.73 µM (inactive),11.8 µM (inactive),55.1 µM (inactive),29.5 µM (inactive),11.3 µM (inactive),16.5 µM (inactive),10.9 µM (inactive),14.5 µM (inactive),15.2 µM (inactive),18.2 µM (inactive),16.5 µM (inactive),22.8 µM (inactive),20.4 µM (inactive)
CC1(C)CC(=O)c2c(-c3ccc(Cl)cc3)c(C#N)c(=S)n(C3OC(CO)C(O)C(O)C3O)c2C1 (stereo not drawn),26.2 µM (inactive),19 µM (inactive),36.2 µM (inactive),69.5 µM (inactive),18.6 µM (inactive),49.8 µM (inactive),33.7 µM (inactive),49.2 µM (inactive),25.4 µM (inactive),25.4 µM (inactive),20.1 µM (inactive),21.7 µM (inactive),21.2 µM (inactive),29.6 µM (inactive),39 µM (inactive),53.3 µM (inactive),17.2 µM (inactive),36.1 µM (inactive),34 µM (inactive)
Cc1c(C(C)C)cc(OCCO)cc1C(C)C,35.4 µM (inactive),23.9 µM (inactive),16.6 µM (inactive),75.7 µM (inactive),26.9 µM (inactive),73.6 µM (inactive),33 µM (inactive),33.5 µM (inactive),27.8 µM (inactive),55.5 µM (inactive),24.9 µM (inactive),40.6 µM (inactive),19.8 µM (inactive),67.1 µM (inactive),51.4 µM (inactive),> 100 µM (inactive),30.8 µM (inactive),38.3 µM (inactive),31.3 µM (inactive)
COc1nc(N)c(/N=C/C(OC(C)=O)C(OC(C)=O)C(COC(C)=O)OC(C)=O)c(=O)n1C (stereo not drawn),> 100 µM (inactive) and 62.2 µM (inactive),> 100 µM (inactive),> 100 µM (inactive),> 100 µM (inactive),> 100 µM (inactive),> 100 µM (inactive),> 100 µM (inactive),> 100 µM (inactive),> 100 µM (inactive),> 100 µM (inactive),> 100 µM (inactive),> 100 µM (inactive),> 100 µM (inactive),> 100 µM (inactive),> 100 µM (inactive),> 100 µM (inactive),> 100 µM (inactive),> 100 µM (inactive),> 100 µM (inactive)
Cc1ccc(/C=C/C(=N/NC(=O)N/N=C(/C=C/c2ccc(C)cc2)C(C)(C)CN2CCCCC2)C(C)(C)CN2CCCCC2)cc1,1.3 µM (inactive),1.94 µM (inactive),1.28 µM (inactive),1.65 µM (inactive),2.19 µM (inactive),3.48 µM (inactive),1.47 µM (inactive),2.07 µM (inactive),1.52 µM (inactive),1.77 µM (inactive),1.16 µM (inactive),1.48 µM (inactive),1.51 µM (inactive),0.813 µM (active),2 µM (inactive),1.74 µM (inactive),1.69 µM (inactive),1.52 µM (inactive),1.67 µM (inactive)
N#CC(NNC(=O)Cc1ccccc1)c1c(O)ccc2ccccc12 (stereo not drawn),1.2 µM (inactive),2.92 µM (inactive),7 µM (inactive),10.2 µM (inactive),3.45 µM (inactive),10.2 µM (inactive),3.15 µM (inactive),5.5 µM (inactive),7.64 µM (inactive),4.16 µM (inactive),1.47 µM (inactive),3.72 µM (inactive),5 µM (inactive),2.84 µM (inactive),3.4 µM (inactive),20.3 µM (inactive),5.33 µM (inactive),5.51 µM (inactive),30.3 µM (inactive)
C/C=C1/CN2CCC34C5=CC(=O)C(c6cc7c(cc6OC)N(C)C6=C(C(=O)OC)CC8(CC)CCCN9CCC67C98)=CC5=NC23CCC1C4C(=O)OC (stereo not drawn),2.28 µM (inactive),16.5 µM (inactive),10.3 µM (inactive),16.8 µM (inactive),15.1 µM (inactive),18.7 µM (inactive),9.14 µM (inactive),14 µM (inactive),7.21 µM (inactive),14.6 µM (inactive),16.7 µM (inactive),15.2 µM (inactive),7.85 µM (inactive),12.1 µM (inactive),15.6 µM (inactive),17 µM (inactive),13 µM (inactive),16.2 µM (inactive),16.6 µM (inactive)
